# Paper PMC4170738 (RSC advances, 2014)
# Legend:
# [1] = tested on: control strain SME3359 (lacZ reporter under synthetic promoter repressed by LacI); assay: Control strain dose-response assay; format: cell-based, E. coli; details: for Control strain IC50: E. coli strain SME3359, 1 mM IPTG, 3 hours at 37°C, 6.2% DMSO; for IC50: Escherichia coli, 3 h, read-out: Control strain IC50
# [2] = Stability towards thiol nucleophile glutathione; format: physicochemical; details: 10 µM in PBS pH 7.4 (1% DMSO), 50 µM GSH, room temperature, up to 48 hours
# [3] = tested on: E. coli strains SME4382 and SME3359; assay: E. coli growth experiments; format: cell-based; details: VirF and control strains, TY broth, 44 µM compound, 6.2% DMSO, 37°C
# VirF [4] = target: T1, VirF (Shigella flexneri, UniProt P0A2T1); assay: cell-based; format: cell-based; details: for VirF IC50: E. coli strain SME4382, virB-lacZ fusion, 1 mM IPTG, 3 hours at 37°C, 6.2% DMSO
# [5] = tested on: VirF-dependent virulence genes (icsS, icsB, ipaB, virB); details: virB in S. flexneri; cited from earlier work
# VirF [6] = target: T1, VirF; details: cell-based reporter gene assays with S. flexneri and E. coli; cited from earlier work
# VirF [7] = target: T1, VirF; details: purified VirF, in vitro; cited from earlier work
# [8] = Aqueous stability in PBS pH 7.4 by RP HPLC/UV/HRMS; format: physicochemical; details: 10 µM in PBS pH 7.4 (1% DMSO), room temperature; by the 0th time point, about 30 minutes elapsed
# T1 sequence (P0A2T1 whole entry, the tested form may be a part): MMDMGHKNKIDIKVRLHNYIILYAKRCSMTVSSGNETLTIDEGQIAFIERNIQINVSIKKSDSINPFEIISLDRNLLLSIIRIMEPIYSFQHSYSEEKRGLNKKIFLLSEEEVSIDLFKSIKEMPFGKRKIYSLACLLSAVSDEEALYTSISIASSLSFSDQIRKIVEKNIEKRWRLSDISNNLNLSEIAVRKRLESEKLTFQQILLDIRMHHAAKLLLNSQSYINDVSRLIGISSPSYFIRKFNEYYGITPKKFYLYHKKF
Compound,Control strain IC50 [1],VirF IC50 (VirF [4]),also measured
"1‧-hexyl-[2,3‧-biquinolin]-1‧-ium bromide [Entry 21]",not inhibiting the control strain,,
"1‧-propyl-[2,3‧-biquinolin]-1‧-ium bromide [Entry 20]",not inhibiting the control strain,,
"Clc1ccc(C[n+]2cc(-c3ccc4ccccc4n3)cc3ccccc32)cc1.[Br-] [Entry 3, 1‧-(4-chlorobenzyl)-[2,3‧-biquinolin]-1‧-ium bromide]",,,GSH adduct formation [2]: no GSH adducts were observed
"CCCCN1C=C(c2cccc(C)n2)C(C[N+](=O)[O-])c2ccccc21 (centres unmarked) [Entry 6, 1-butyl-3-(6-methylpyridin-2-yl)-4-(nitromethyl)-1,4-dihydroquinoline]",,,Effect on bacterial growth [3]: inhibited the growth of the bacteria; IC50 (VirF [4]): > 100 µM; IC50 [1]: > 100 µM
"CCCCN1C=C(c2cccc(Cl)c2)C(C[N+](=O)[O-])c2ccccc21 (centres unmarked) [Entry 7, 1-butyl-3-(3-chlorophenyl)-4-(nitromethyl)-1,4-dihydroquinoline]",,,IC50 [1]: > 100 µM
"CCCCN1C=C(c2ccc3ccccc3n2)C(c2ccccc2)c2ccccc21 (centres unmarked) [Entry 8, 1‧-butyl-4‧-phenyl-1‧,4‧-dihydro-2,3‧-biquinoline]",No inhibition,No inhibition,
"CCCCN1c2ccccc2C=C(c2ccc3ccccc3n2)C1C (centres unmarked) [Entry 10, 1‧-butyl-2‧-methyl-1‧,2‧-dihydro-2,3‧-biquinoline]",No inhibition,No inhibition,
"CCCCn1cc(-c2ccc3ccccc3n2)c2ccccc21 [Entry 12, 2-(1-butyl-1 H-indol-3-yl)quinoline]",no inhibitory activity,no inhibitory activity,
"CCCCn1c2ccccc2c(=O)c2ccccc21 [Entry 15, 10-butylacridin-9(10H)-one]",no inhibitory activity,no inhibitory activity,
"CCCCCCCCC[n+]1ccccc1.[Br-] [Entry 17, 1-nonylpyridin-1-ium bromide]","good to modest, non-specific activity","good to modest, non-specific activity",IC50 (VirF [4]): > 50 µM; IC50 [1]: > 50 µM
"CCCCCCCCC[N+](CC)(CC)CC.[Br-] [Entry 18, N,N,N-triethylnonan-1-aminium bromide]",no inhibitory activity,no inhibitory activity,
"CC(C)[n+]1cc(-c2ccc3ccccc3n2)cc2ccccc21.[I-] [Entry 19, 1‧-isopropyl-[2,3‧-biquinolin]-1‧-ium iodide]",not inhibiting the control strain,,
"CCCC[n+]1cc(-c2ccc3ccccc3c2)cc2ccccc21 [Entry 23, 1-butyl-3-(naphthalen-2-yl)quinolin-1-ium bromide]",,,IC50 (VirF [4]): 9 µM; IC50 [1]: > 100 µM
"C=CCCC[n+]1cc(-c2ccc3ccccc3n2)cc2ccccc21.[Br-] [Entry 24, 1‧-(pent-4-en-1-yl)-[2,3‧-biquinolin]-1’-ium bromide]",not inhibiting the control strain,,
"CCCCN1C=C(c2ccc3ccccc3n2)C(C[N+](=O)[O-])c2ccccc21 (centres unmarked) [SE-1, 1‧-Butyl-4‧-(nitromethyl)-1‧,4’-dihydro-2,3‧-biquinoline]",,,Expression of VirF-dependent virulence genes (mRNA) [5]: reduced the expression; Inhibition of transcription activation by VirF (VirF [6]): inhibitor; Inhibition of DNA binding by VirF (VirF [7]): inhibitor; Aqueous stability (degradation to the corresponding quaternary salt) [8]: degraded completely
